In ChEMBL document CHEMBL4725420, “Selective DYRK1A Inhibitor for the Treatment of Neurodegenerative Diseases: Alzheimer, Parkinson, Huntington, and Down Syndrome” (ACS Med Chem Lett, 2020):

Target: Dual specificity tyrosine-phosphorylation-regulated kinase 1A (Homo sapiens, UniProt Q13627)
Assay: Binding affinity to DYRK1A (unknown origin)

SMILES	Kd
Fc1c(-c2ccncc2)ccc2ncn(-c3ccc4c(c3)OCO4)c12	0.5 nM
CC(=O)N1CC[C@H](n2c(C)nc3ccc(-c4ccncc4)nc32)C1	101 nM
CC(=O)N1C[C@@H]2[C@H](C1)[C@H]2n1c(C)nc2ccc(-c3ccncc3)nc21	0.5 nM
c1cc(-c2ccc3ncn(-c4ccc5c(c4)OCO5)c3n2)ccn1	0.5 nM
NC(=O)c1ccc(-n2cnc3ccc(-c4ccncc4)c(F)c32)nc1	0.5 nM
Cc1nc2ccc(-c3ccncc3)nc2n1-c1ccc(CN2CCOCC2)cc1	0.5 nM

Other lines, results leading:

Kd	SMILES
0.5 nM	Cc1nc2ccc(-c3cnn(C4CC4)c3)nc2n1-c1ccc(N2CCOCC2)c(F)c1
0.5 nM	Cc1nc2ccc(-c3ccncc3)nc2n1-c1ccc2c(c1)OCC(=O)N2
0.5 nM	O=C(O)c1ccc(-n2cnc3ccc(-c4ccncc4)nc32)cc1
0.5 nM	COC(=O)c1ccc(-n2cnc3ccc(-c4ccncc4)c(F)c32)cc1
